Source: US20230295234A1, “ANTIMICROBIAL PEPTIDOMIMETICS” (SPEXIS AG, priority 2020, published 2023)
Bridge positions count the residues as written; N and C are the ends. Square brackets hold non-standard residues; d marks the D form. Peptide text beside a SMILES is read from it. * marks the point of attachment. Pro(4R-NH2) = N[C@H]1CN[C@H](C(=O)O)C1; Gly(N-2-aminoethyl) = NCCNCC(=O)O; Hyp = O=C(O)[C@@H]1C[C@@H](O)CN1; Gly(N(CH2)3NH2) = NCCCNCC(=O)O; Pen = CC(C)(S)[C@H](N)C(=O)O; dDab = NCC[C@@H](N)C(=O)O; Nle = CCCC[C@H](N)C(=O)O; Dab = NCC[C@H](N)C(=O)O; X3 = NCCN(CCN)CC(=O)*; Nlys = NCCCCNCC(=O)O

Legend:
[1] = system: Escherichia coli ATCC 25922; conditions: ATCC 25922
Outline: (§1)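 Broth microdilution; cation-adjusted MHII; inoculum ~5×10^5 CFU/mL from 0.5 McFarland saline suspension; peptide two-fold serial dilutions; polysorbate 80 0.002% final; peptide stock 1 mg/mL in water.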

[2] = system: Escherichia coli MCR-1 Af 45; conditions: MCR-1 Af 45
Outline: as §1

[3] = system: Klebsiella pneumoniae SSI3010; conditions: SSI3010
Outline: as §1

[4] = system: human red blood cells (hRBC); experiment: Hemolysis of human red blood cells; type: cell-based; conditions: red cells of human, 1 h
Outline: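 PBS-washed human red blood cells (20% v/v) were incubated with peptide at 200 μg/mL for 1 h at 37 °C with shaking. Supernatant OD was read at 540 nm after 8-fold dilution. Hemolysis is expressed as percent of the water control.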

Row | Structure (SMILES) | Escherichia coli ATCC 25922 MIC [1] | Escherichia coli MCR-1 Af 45 MIC [2] | Klebsiella pneumoniae SSI3010 MIC [3] | Hemolysis at 0.2 g/L [4]
1 | CC[C@H](C)[C@H](NC(=O)[C@@H]1C[C@@H](O)CN1C(=O)[C@@H](NC(=O)[C@@H]1C[C@@H](O)CN1C(=O)[C@@H](N)CCCCN)C(C)C)C(=O)N[C@H](C(=O)N[C@@H](Cc1ccc(O)cc1)C(=O)N[C@@H]1C(=O)N[C@@H](CC(N)=O)C(=O)N[C@@H](CCCNC(=N)N)C(=O)N[C@@H](CCN)C(=O)N[C@@H]([C@@H](C)O)C(=O)N[C@H](CCN)C(=O)N[C@@H](CCCCN)C(=O)N[C@H](C(=O)N[C@@H](CCN)C(=O)N[C@@H](CCCNC(=N)N)C(=O)N[C@@H](Cc2ccc(O)cc2)C(=O)O)CSSC1(C)C)[C@@H](C)O [Example 41, Lys-Hyp-Val-Hyp-Ile-Thr-Tyr-Pen-Asn-Arg-Dab-Thr-^DDab-Lys-Cys-Dab-Arg-Tyr] (HELM PEPTIDE1{K.[Hyp].V.[Hyp].I.T.Y.[Pen].N.R.[Dab].T.[NCC[C@@H](N[*:1])C(=O)[*:2]].K.C.[Dab].R.Y}$PEPTIDE1,PEPTIDE1,8:R3-15:R3$$$V2.0) | 0.125 mg/L | 0.0625 mg/L | 0.25 mg/L | 0%
2 | CC[C@H](C)[C@H](NC(=O)[C@@H]1C[C@@H](O)CN1C(=O)[C@@H](NC(=O)[C@@H]1C[C@@H](O)CN1C(=O)CNCCCN)C(C)C)C(=O)N[C@H](C(=O)N[C@@H](Cc1ccc(O)cc1)C(=O)N[C@@H]1C(=O)N[C@@H](CC(N)=O)C(=O)N[C@@H](CCCNC(=N)N)C(=O)N[C@@H](CCN)C(=O)N[C@@H]([C@@H](C)O)C(=O)N[C@H](CCN)C(=O)N[C@@H](CCCCN)C(=O)N[C@H](C(=O)N[C@@H](CCN)C(=O)N[C@@H](CCCNC(=N)N)C(=O)N[C@@H](Cc2ccc(O)cc2)C(=O)O)CSSC1(C)C)[C@@H](C)O [Example 42, Norn-Hyp-Val-Hyp-Ile-Thr-Tyr-Pen-Asn-Arg-Dab-Thr-^DDab-Lys-Cys-Dab-Arg-Tyr] (HELM PEPTIDE1{[NCCCNCC(=O)[*:2]].[Hyp].V.[Hyp].I.T.Y.[Pen].N.R.[Dab].T.[NCC[C@@H](N[*:1])C(=O)[*:2]].K.C.[Dab].R.Y}$PEPTIDE1,PEPTIDE1,8:R3-15:R3$$$V2.0) | 0.125 mg/L | 0.125 mg/L | 0.25 mg/L | 0%
3 | CC[C@H](C)[C@H](NC(=O)[C@@H]1C[C@@H](N)CN1C(=O)[C@@H](NC(=O)[C@@H]1C[C@@H](O)CN1C(=O)[C@@H](N)CCCCN)C(C)C)C(=O)N[C@H](C(=O)N[C@@H](Cc1ccc(O)cc1)C(=O)N[C@@H]1C(=O)N[C@@H](CC(N)=O)C(=O)N[C@@H](CCCNC(=N)N)C(=O)N[C@@H](CCN)C(=O)N[C@@H]([C@@H](C)O)C(=O)N[C@H](CCN)C(=O)N[C@@H](CCCCN)C(=O)N[C@H](C(=O)N[C@@H](CCN)C(=O)N[C@@H](CCCNC(=N)N)C(=O)N[C@@H](Cc2ccc(O)cc2)C(=O)O)CSSC1(C)C)[C@@H](C)O [Example 43, Lys-Hyp-Val-Pro((4R)NH2)-Ile-Thr-Tyr-Pen-Asn-Arg-Dab-Thr-^DDab-Lys-Cys-Dab-Arg-Tyr] (HELM PEPTIDE1{K.[Hyp].V.[N[C@@H]1C[C@@H](C(=O)[*:2])N([*:1])C1].I.T.Y.[Pen].N.R.[Dab].T.[NCC[C@@H](N[*:1])C(=O)[*:2]].K.C.[Dab].R.Y}$PEPTIDE1,PEPTIDE1,8:R3-15:R3$$$V2.0) | 0.125 mg/L | 0.125 mg/L | 0.125 mg/L | 0%
4 | CC[C@H](C)[C@H](NC(=O)[C@@H]1C[C@@H](N)CN1C(=O)[C@@H](NC(=O)[C@@H]1C[C@@H](O)CN1C(=O)CNCCN)C(C)C)C(=O)N[C@H](C(=O)N[C@@H](Cc1ccc(O)cc1)C(=O)N[C@@H]1C(=O)N[C@@H](CC(N)=O)C(=O)N[C@@H](CCCNC(=N)N)C(=O)N[C@@H](CCN)C(=O)N[C@@H]([C@@H](C)O)C(=O)N[C@H](CCN)C(=O)N[C@@H](CCCCN)C(=O)N[C@H](C(=O)N[C@@H](CCN)C(=O)N[C@@H](CCCNC(=N)N)C(=O)N[C@@H](Cc2ccc(O)cc2)C(=O)O)CSSC1(C)C)[C@@H](C)O [Example 44, Ndab-Hyp-Val-Pro((4R)NH2)-Ile-Thr-Tyr-Pen-Asn-Arg-Dab-Thr-^DDab-Lys-Cys-Dab-Arg-Tyr] (H-[Gly(N-2-aminoethyl)][Hyp]V[Pro(4R-NH2)]ITY[Pen]NR[Dab]T[dDab]KC[Dab]RY-OH; disulfide 8-15) | 0.25 mg/L | 0.125 mg/L | 0.25 mg/L | 0%
5 | CC[C@H](C)[C@H](NC(=O)[C@@H]1C[C@@H](N)CN1C(=O)[C@@H](NC(=O)[C@@H]1C[C@@H](O)CN1C(=O)CNCCCN)C(C)C)C(=O)N[C@H](C(=O)N[C@@H](Cc1ccc(O)cc1)C(=O)N[C@@H]1C(=O)N[C@@H](CC(N)=O)C(=O)N[C@@H](CCCNC(=N)N)C(=O)N[C@@H](CCN)C(=O)N[C@@H]([C@@H](C)O)C(=O)N[C@H](CCN)C(=O)N[C@@H](CCCCN)C(=O)N[C@H](C(=O)N[C@@H](CCN)C(=O)N[C@@H](CCCNC(=N)N)C(=O)N[C@@H](Cc2ccc(O)cc2)C(=O)O)CSSC1(C)C)[C@@H](C)O [Example 45, Norn-Hyp-Val-Pro((4R)NH2)-Ile-Thr-Tyr-Pen-Asn-Arg-Dab-Thr-^DDab-Lys-Cys-Dab-Arg-Tyr] (H-[Gly(N(CH2)3NH2)][Hyp]V[Pro(4R-NH2)]ITY[Pen]NR[Dab]T[dDab]KC[Dab]RY-OH; disulfide 8-15) | 0.0625 mg/L | 0.0625 mg/L | 0.125 mg/L | 0%
6 | CC[C@H](C)[C@H](NC(=O)[C@@H]1C[C@@H](N)CN1C(=O)[C@@H](NC(=O)[C@@H]1C[C@@H](O)CN1C(=O)CNCCCCN)C(C)C)C(=O)N[C@H](C(=O)N[C@@H](Cc1ccc(O)cc1)C(=O)N[C@@H]1C(=O)N[C@@H](CC(N)=O)C(=O)N[C@@H](CCCNC(=N)N)C(=O)N[C@@H](CCN)C(=O)N[C@@H]([C@@H](C)O)C(=O)N[C@H](CCN)C(=O)N[C@@H](CCCCN)C(=O)N[C@H](C(=O)N[C@@H](CCN)C(=O)N[C@@H](CCCNC(=N)N)C(=O)N[C@@H](Cc2ccc(O)cc2)C(=O)O)CSSC1(C)C)[C@@H](C)O [Example 46, Nlys-Hyp-Val-Pro((4R)NH2)-Ile-Thr-Tyr-Pen-Asn-Arg-Dab-Thr-^DDab-Lys-Cys-Dab-Arg-Tyr] (H-[Nlys][Hyp]V[Pro(4R-NH2)]ITY[Pen]NR[Dab]T[dDab]KC[Dab]RY-OH; disulfide 8-15) | ≤0.03125 mg/L | ≤0.03125 mg/L | 0.125 mg/L | 0%

Continued, in another order:

Row | Escherichia coli ATCC 25922 MIC [1] | Escherichia coli MCR-1 Af 45 MIC [2] | Klebsiella pneumoniae SSI3010 MIC [3] | Structure (SMILES) | Hemolysis at 0.2 g/L [4]
7 | 0.0625 mg/L | ≤0.03125 mg/L | 0.0625 mg/L | CCCC[C@H](NC(=O)[C@H](CCCNC(=N)N)NC(=O)[C@H](CCN)NC(=O)[C@@H]1CSSC(C)(C)[C@H](NC(=O)[C@H](Cc2ccc(O)cc2)NC(=O)[C@@H](NC(=O)[C@@H](NC(=O)[C@@H]2CCCN2C(=O)[C@@H](NC(=O)CN(CCN)CCN)C(C)C)[C@@H](C)CC)[C@@H](C)CC)C(=O)N[C@@H](CC(N)=O)C(=O)N[C@@H](CCCNC(=N)N)C(=O)N[C@@H](CCCNC(=N)N)C(=O)N[C@@H]([C@@H](C)O)C(=O)N[C@H](CCN)C(=O)N[C@@H](CCCCN)C(=O)N1)C(=O)O [Example 39, Bis(2aminoethyl)Gly-Val-Pro-Ile-Ile-Tyr-Pen-Asn-Arg-Arg-Thr-^DDab-Lys-Cys-Dab-Arg-Nle] (HELM PEPTIDE1{[NCCN(CCN)CC(=O)[*:2]].V.P.I.I.Y.[Pen].N.R.R.T.[NCC[C@@H](N[*:1])C(=O)[*:2]].K.C.[Dab].R.[Nle]}$PEPTIDE1,PEPTIDE1,7:R3-14:R3$$$V2.0) | 0%
8 | 0.125 mg/L | 0.0625 mg/L | 0.25 mg/L | CCCC[C@H](NC(=O)[C@H](CCCNC(=N)N)NC(=O)[C@H](CCC(N)=O)NC(=O)[C@@H]1CSSC(C)(C)[C@H](NC(=O)[C@H](Cc2ccc(O)cc2)NC(=O)[C@@H](NC(=O)[C@@H](NC(=O)[C@@H]2C[C@@H](N)CN2C(=O)[C@@H](NC(=O)CN(CCN)CCN)C(C)C)[C@@H](C)CC)[C@@H](C)CC)C(=O)N[C@@H](CC(N)=O)C(=O)N[C@@H](CCCNC(=N)N)C(=O)N[C@@H](CCN)C(=O)N[C@@H]([C@@H](C)O)C(=O)N[C@H](CCN)C(=O)N[C@@H](CCCCN)C(=O)N1)C(=O)O [Example 40, Bis(2aminoethyl)Gly-Val-Pro((4R)NH2)-Ile-Ile-Tyr-Pen-Asn-Arg-Dab-Thr-DDab-Lys-Cys-Gln-Arg-Nle] (X3-V[Pro(4R-NH2)]IIY[Pen]NR[Dab]T[dDab]KCQR[Nle]-OH; disulfide 6-13) | 0%
9 | 0.0625 mg/L | ≤0.03125 mg/L | 0.25 mg/L | CC[C@H](C)[C@H](NC(=O)CN(CCN)C(=O)[C@@H](NC(=O)[C@@H]1C[C@@H](O)CN1C(=O)[C@@H](N)CCCCN)C(C)C)C(=O)N[C@H](C(=O)N[C@@H](Cc1ccc(O)cc1)C(=O)N[C@@H]1C(=O)N[C@@H](CC(N)=O)C(=O)N[C@@H](CCCNC(=N)N)C(=O)N[C@@H](CCN)C(=O)N[C@@H]([C@@H](C)O)C(=O)N[C@H](CCN)C(=O)N[C@@H](CCCCN)C(=O)N[C@H](C(=O)N[C@@H](CCN)C(=O)N[C@@H](CCCNC(=N)N)C(=O)N[C@@H](Cc2ccc(O)cc2)C(=O)O)CSSC1(C)C)[C@@H](C)O [Example 47, Lys-Hyp-Val-Ndab-Ile-Thr-Tyr-Pen-Asn-Arg-Dab-Thr-^DDab-Lys-Cys-Dab-Arg-Tyr] (HELM PEPTIDE1{K.[Hyp].V.[NCCN(CC(=O)[*:2])[*:1]].I.T.Y.[Pen].N.R.[Dab].T.[NCC[C@@H](N[*:1])C(=O)[*:2]].K.C.[Dab].R.Y}$PEPTIDE1,PEPTIDE1,8:R3-15:R3$$$V2.0) | 0%
